target: T1, recombinant human Myt1 (Homo sapiens, UniProt Q99640); test: Myt1 enzymatic assay (ADP-Glo kinase assay, IC50 and % max inhibition); assay type: biochemical; conditions: recombinant human Myt1 18 nM, ATP 10 μM
T1 construct: full length PKMYT1 recombinant human protein expressed in insect cells
T1 sequence (Q99640 1-499): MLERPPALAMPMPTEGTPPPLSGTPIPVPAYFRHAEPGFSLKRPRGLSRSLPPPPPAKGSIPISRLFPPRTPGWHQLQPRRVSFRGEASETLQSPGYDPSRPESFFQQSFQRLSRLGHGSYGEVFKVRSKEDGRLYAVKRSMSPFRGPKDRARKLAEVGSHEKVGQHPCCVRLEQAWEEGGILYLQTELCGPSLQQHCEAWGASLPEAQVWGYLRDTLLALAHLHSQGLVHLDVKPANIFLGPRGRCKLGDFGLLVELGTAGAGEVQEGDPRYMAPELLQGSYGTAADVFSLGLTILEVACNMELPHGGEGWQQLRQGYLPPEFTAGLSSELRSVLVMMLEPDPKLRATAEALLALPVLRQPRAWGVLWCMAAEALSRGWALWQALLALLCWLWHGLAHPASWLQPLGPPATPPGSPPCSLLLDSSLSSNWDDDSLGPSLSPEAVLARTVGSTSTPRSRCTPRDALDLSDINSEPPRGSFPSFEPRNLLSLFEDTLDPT
Protocol: Detection of Myt1 kinase activity utilized a recombinant human Myt1 kinase assay measuring the hydrolysis of ATP using a commercially available ADP-Glo Assay (ADP-Glo™ Kinase Assay from Promega, 10 000 assays, #V9102). […] After this, 5 μL of compounds (diluted in reaction buffer to 0.5% DMSO) was added to the microplate and the plate was spun briefly and incubated at 22° C. for 15 minutes. Ultra-Pure Adenosine Triphosphate (ATP) solution (ADP-Glo kit from Promega) was diluted in reaction buffer and 5 μL was added to the microplate, spun down briefly and incubated for 60 minutes at 30° C. […] After the 60-minute incubation, 15 μL of ADP-Glo reagent was added and the plate was spun briefly and sealed and incubated in the dark for 40 minutes at 22° C. […] Luminescence was read using the Envision (250 ms integration). The IC50 and the % max inhibition were calculated for each inhibitor compound tested.

SMILES | IC50 [nM]
Cc1ccc(O)c(C)c1-n1c(N)c(C(N)=O)c2ncc(C#CC3(C)CCCO3)nc21 (centres unmarked) [Compound 235] | 13
Cc1ccc(O)c(C)c1-n1c(N)c(C(N)=O)c2ncc(C#CC3(O)CCOC3)nc21 (centres unmarked) [Compound 236] | 16
Cc1ccc(O)c(C)c1-n1c(N)c(C(N)=O)c2ncc(C#CCC3(O)CCOCC3)nc21 [Compound 237] | 19
COC(C)(C)C#Cc1cnc2c(C(N)=O)c(N)n(-c3c(C)ccc(O)c3C)c2n1 [Compound 238] | 10
Cc1ccc(O)c(C)c1-n1c(N)c(C(N)=O)c2ncc(C#CC(C)(C)O)nc21 [Compound 239] | 15
COCCOCC#Cc1cnc2c(C(N)=O)c(N)n(-c3c(C)ccc(O)c3C)c2n1 [Compound 240] | 191
Cc1ccc(O)c(C)c1-n1c(N)c(C(N)=O)c2ncc(C#C[C@@H](C)O)nc21 [Compound 241] | 24
Cc1ccc(O)c(C)c1-n1c(N)c(C(N)=O)c2ncc(C#CC3(O)CCC(F)(F)CC3)nc21 [Compound 242, 6-amino-3-[2-(4,4-difluoro-1-hydroxy-cyclohexyl)ethynyl]-5-(3-hydroxy-2,6-dimethyl-phenyl)pyrrolo[2,3-b]pyrazine-7-carboxamide] | < 10
Cc1ccc(O)c(C)c1-n1c(N)c(C(N)=O)c2nc(C(=O)Nc3cccnc3)cnc21 [Compound 243, 6-amino-5-(3-hydroxy-2,6-dimethyl-phenyl)-N2-(3-pyridyl)pyrrolo[2,3-b]pyrazine-2,7-dicarboxamide] | 69
CCNC(=O)c1cnc2c(n1)c(C(N)=O)c(N)n2-c1c(C)ccc(O)c1C [Compound 244] | 16
Cc1ccc(O)c(C)c1-n1c(N)c(C(N)=O)c2nc(C(=O)NCc3ccccc3)cnc21 [Compound 245] | 11
CCN(CC)C(=O)c1cnc2c(n1)c(C(N)=O)c(N)n2-c1c(C)ccc(O)c1C [Compound 246] | 84
Cc1ccc(O)c(C)c1-n1c(N)c(C(N)=O)c2nc(-c3cc4ccccc4n3C)cnc21 [Compound 247] | 17
Cc1ccc(O)c(C)c1-n1c(N)c(C(N)=O)c2nc(-c3nc4ccccc4s3)cnc21 [Compound 248] | < 10
Cc1ccc(O)c(C)c1-n1c(N)c(C(N)=O)c2nc(-c3nc4ccccc4o3)cnc21 [Compound 249] | 20
Cc1ccc(O)c(C)c1-n1c(N)c(C(N)=O)c2nc(-c3ccnnc3)cnc21 [Compound 250] | < 10
Cc1ccc(O)c(C)c1-n1c(N)c(C(N)=O)c2nc(N3CC4(COC4)C3)cnc21 [Compound 253] | 24
Cc1ccc(O)c(C)c1-n1c(N)c(C(N)=O)c2nc(-c3nc4ccccc4n3C)cnc21 [Compound 254] | 10
Cc1ccc(O)c(C)c1-n1c(N)c(C(N)=O)c2nc(-c3nc(C)c(C)o3)cnc21 [Compound 255] | 109
Cc1ccc(O)c(C)c1-n1c(N)c(C(N)=O)c2nc(C3CC3)c(C3CC3)nc21 [Compound 256] | 50
C=Cc1cnc2c(C(N)=O)c(N)n(-c3c(C)ccc(O)c3C)c2n1 [Compound 257, 6-amino-5-(3-hydroxy-2,6-dimethyl-phenyl)-3-vinyl-pyrrolo[2,3-b]pyrazine-7-carboxamide] | 43
Cc1ccc(O)c(C)c1-n1c(N)c(C(N)=O)c2nc(-c3cccc(OC4CCOCC4)n3)cnc21 [Compound 258] | 3130
C=Cc1cnc2c(n1)c(C(N)=O)c(N)n2-c1c(C)ccc(O)c1C [Compound 259] | < 10
Cc1ccc(O)c(C)c1-n1c(N)c(C(N)=O)c2nc(OC3CC3)cnc21 [Compound 260, 6-amino-2-(cyclopropoxy)-5-(3-hydroxy-2,6-dimethyl-phenyl)pyrrolo[2,3-b]pyrazine-7-carboxamide] | 27

SMILES | IC50 [nM]
Cc1ccc(O)c(C)c1-n1c(N)c(C(N)=O)c2nc3c(nc21)CCCC3 [Compound 262] | < 10
Cc1ccc(O)c(C)c1-n1c(N)c(C(N)=O)c2nc(C(F)F)cnc21 [Compound 263, 6-amino-2-(difluoromethyl)-5-(3-hydroxy-2,6-dimethyl-phenyl)pyrrolo[2,3-b]pyrazine-7-carboxamide] | 16
Cc1ccc(O)c(C)c1-n1c(N)c(S(C)(=O)=O)c2nc(-c3cnccn3)cnc21 [Compound 278] | > 5000
Cc1ccc(O)c(C)c1-n1c(N)c(C(N)=O)c2nc(C#CC3CCNC3)cnc21 (centres unmarked) [Compound 279] | 250
Cc1ccc(O)c(C)c1-n1c(N)c(C(N)=O)c2nc(CCC3CCNC3)cnc21 (centres unmarked) [Compound 280] | 80
Cc1ccc(O)cc1-n1c(N)c(C(N)=O)c2nc(OCc3ccccc3)cnc21 [Compound 281] | 784
Cc1ccc(O)cc1-n1c(N)c(C(N)=O)c2nc(NCc3ccccc3)cnc21 [Compound 282] | 625
Cc1ccc(O)c(C)c1-n1c(N)c(C(N)=O)c2nc(C#CC(=O)Nc3ccc(F)cc3)cnc21 [Compound 283] | 32
Cc1ccc(O)cc1-n1c(N)c(C(N)=O)c2nc(OCc3cccnc3)cnc21 [Compound 284] | 238
Cc1cnc2c(n1)c(C(N)=O)c(N)n2-c1c(C)ccc(O)c1C [Compound 285] | 11
Cc1ccc(O)c(Br)c1-n1c(N)c(C(N)=O)c2cc(Cl)cnc21 [Compound 289] | < 10
Cc1ccc(O)c(C)c1-n1c(N)c(C(N)=O)c2cc(-c3ccccn3)cnc21 [Compound 295] | < 10
Cc1ccc(O)c(C)c1-n1c(N)c(C(N)=O)c2cc(N3CCCC3=O)cnc21 [Compound 298] | < 10
Cc1c(O)ccc(Br)c1-n1c(N)c(C(N)=O)c2cc(Cl)cnc21 [Compound 301] | 13
Cc1ccc(O)c(C)c1-n1c(N)c(C(N)=O)c2cc(C3=CCOCC3)cnc21 [Compound 304] | < 10
Cc1ccc(O)c(C)c1-n1c(N)c(C(N)=O)c2cc(-c3nccs3)cnc21 [Compound 308] | < 10
Cc1ccc(O)c(C)c1-n1c(N)c(C(N)=O)c2cc(S(=O)(=O)C3CC3)cnc21 [Compound 311] | < 10
Cc1ccc(O)c(C)c1-n1c(N)c(C(N)=O)c2cc(C#N)cnc21 [Compound 312] | < 10
Cc1ccc(O)c(C)c1-n1c(N)c(C(N)=O)c2c(C)c(Cl)cnc21 [Compound 313] | < 10
Cc1ccc(O)c(C)c1-n1c(N)c(C(N)=O)c2c(Cl)c(Cl)cnc21 [Compound 316] | < 10
Cc1ccc(O)c(C)c1-n1c(N)c(C(N)=O)c2cc(I)cnc21 [Compound 319] | < 10
Cc1ccc(O)c(Cl)c1-n1c(N)c(C(N)=O)c2cc(Cl)cnc21 [Compound 327] | < 10
Cc1ccc(O)c(C)c1-n1c(N)c(C(N)=O)c2cccnc21 [Compound 328] | < 10

Source: patent US20230151014A1 (Repare Therapeutics Inc., priority 2020, published 2023)
